# Source: patent US8461199B2, “Transition metal complexes of a bis[thio-hydrazide amide] compound” (Synta Pharmaceuticals Corp., priority 2008, dated 2013)
# Tests used:
# [1] = system: stage IV metastatic melanoma; conditions: in combination with paclitaxel, relative to patients treated with paclitaxel alone; cited from earlier work
# M14 melanoma cells = experiment: Cytotoxicity in confluent M14 cells, cell viability by CCK8 assay; format: cell-based; conditions: Homo sapiens, 48 h incubation, 0.25% DMSO, n=4
# Experimental: M14 melanoma cells were seeded at 50,000 cells per well of 96-well plate in 100 μl of Dulbecco's minimum essential medium (DMEM) supplemented with 10% fetal bovine serum. Cells were cultured at 37° C. under 5% CO2-95% air. After 16 hours of incubation, the test compound was added to the cell culture. The compound was first diluted in 100% dimethyl sulfoxide (DMSO) at 400-fold of the final concentrations actually used in the assay. The DMSO solution was next diluted 20 fold with the culture medium, and then finally added to the assay wells at another 20-fold dilution. Assay medium included the test compound with concentrations as indicated with 0.25% DMSO. Cell viability was measured with a CCK8 assay (as described in the Technical Manual for Cell Counting Kit-8, Product #CK04-11, CK04-13 and CK04-20, Dojindo Molecular Technologies, Inc. MD, Tantular, I. S., et al. Tropical Medicine and International Health, 8(6), 569-574, 2003) in the last 15 minutes after a 48 h incubation with the test compound. Each bar of the figure expresses average percent inhibition against vehicle (0.25% DMSO) control (n=4).
smiles,measurement,setting,value
"CN(NC(=O)CC(=O)NN(C)C(=S)c1ccccc1)C(=S)c1ccccc1 [compound A, N-malonyl-bis(N′-methyl-N′-thiobenzoylhydrazide)]",time to progression,[1],increase the time to progression
same,IC50,M14 melanoma cells,> 12.5 µM
